Read-outs that look alike come from different tables or passages of the source.
Tests used:
TXA2 synthetase = target: T1, TXA2 synthetase (Equus caballus, UniProt A0A9L0T8T9); assay: Inhibition of thromboxane (TXA2) synthetase in homogenised horse platelets, labelled arachidonic acid, thromboxane B2 measured by TLC; assay type: biochemical; settings: horse platelet homogenate, pH 7.4
T1 construct: labelled arachidonic acid substrate, thromboxane B2 measured by TLC
T1 sequence (A0A9L0T8T9 2-534): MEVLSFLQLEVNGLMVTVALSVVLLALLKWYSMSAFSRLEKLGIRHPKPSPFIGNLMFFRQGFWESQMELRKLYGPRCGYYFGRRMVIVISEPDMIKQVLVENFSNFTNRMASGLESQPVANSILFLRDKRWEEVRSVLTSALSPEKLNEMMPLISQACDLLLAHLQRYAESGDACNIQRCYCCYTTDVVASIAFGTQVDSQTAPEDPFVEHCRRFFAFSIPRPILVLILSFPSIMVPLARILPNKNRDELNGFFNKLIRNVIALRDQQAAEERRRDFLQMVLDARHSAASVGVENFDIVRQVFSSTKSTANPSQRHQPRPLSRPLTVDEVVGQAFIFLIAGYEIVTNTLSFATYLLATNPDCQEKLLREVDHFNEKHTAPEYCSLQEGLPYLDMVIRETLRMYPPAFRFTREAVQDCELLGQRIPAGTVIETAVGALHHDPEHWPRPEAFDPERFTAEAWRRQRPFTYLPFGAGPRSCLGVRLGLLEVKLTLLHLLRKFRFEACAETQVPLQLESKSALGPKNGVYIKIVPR
Protocol: (§1) Horse platelets were prepared from whole horse blood by differential centrifugation. Approximately 10^6 platelets were homogenised in 1 ml 100 mM Tris buffer pH 7.4. Various concentrations of active compound were added and the reaction sets incubated for 5 minutes at ambient temperature. To each tube was added 20 nM of arachidonic acid containing 10^6 DPM of labelled arachidonic acid and the tubes incubated for 3 minutes at 37° C. in a shaking water bath. After incubation the radioactive products were extracted from the acidified aqueous phase with ethyl acetate and after concentration resolved by thin layer chromatography on silica gel with chloroform/methanol/acetic acid/water (90:8:1:0.8) as a developing solvent. The amount of thromboxane produced was measured by scraping off the radioactive zone corresponding to thromboxane B2 and estimating the radioactivity in a liquid scintillation counter.
The concentration of active compound to reduce the enzyme activity by 50% (ED50) was established.
By the method of Biological results Example 7 above the ED50 and selectivity values were obtained for the compounds set out in Table B.

PGE, PGF and PGD = assay: Selectivity: amount of PGE, PGF and PGD produced (anti-aggregating prostaglandins), horse platelets; assay type: biochemical; settings: horse platelet homogenate
Protocol: as §1, with “Various concentrations of active compound were added and the reaction sets incubated for 5 minutes at ambient temperature.” left out
The greater the selectivity, the more of the anti-aggregating prostaglandins are produced.
The ED50 and Selectivity results are shown in Table A in which 0 indicates no selectivity; + low selectivity: ++ medium selectivity; +++ high selectivity, and ++++ exceptionally high selectivity.

platelet aggregation = assay: Inhibition of platelet aggregation in vivo
platelet clumps = assay: Disaggregation of platelet clumps
[1] = test system: enzymic conversion of the endoperoxides (PGG2 and PGH2) to thromboxane A2 by platelet microsomes; settings: Moncada et al., Prostaglandins 1977; cited from earlier work
[2] = Table B, read-out: ED50 (concentration of active compound to reduce the enzyme activity by 50%) (converted)

Compound: Cc1cccc(-n2ccnc2)c1C [1-(2,3-dimethylphenyl)imidazole]
- IC50 (TXA2 synthetase; [2]): ~17.4 µM
- SELECTIVITY (PGE, PGF and PGD; Table B): ++

Compound: Cc1cc(C)c(Cn2ccnc2)c(C)c1 [1-(2,4,6-Trimethylbenzyl)imidazole, 1-(2,4,6-trimethylbenzyl)imidazole]
- SELECTIVITY (PGE, PGF and PGD; Table A): ++
- inhibiting platelet aggregation in vivo (platelet aggregation): capable of inhibiting platelet aggregation in vivo
- disaggregating platelet clumps (platelet clumps): capable of disaggregating platelet clumps

Compound: Clc1ccc(Cn2ccnc2)c(Cl)c1 [1-(2,4-dichlorobenzyl)imidazole, 1-(2,4-Dichlorobenzyl)imidazole]
- IC50 (TXA2 synthetase; [2]): 8.81 to 35.2 µM
- inhibiting platelet aggregation in vivo (platelet aggregation): capable of inhibiting platelet aggregation in vivo
- disaggregating platelet clumps (platelet clumps): capable of disaggregating platelet clumps

Compound: Clc1ccccc1Cn1ccnc1 [1-(2-chlorobenzyl)imidazole]
- IC50 (TXA2 synthetase; [2]): 2.6 µM
- SELECTIVITY (PGE, PGF and PGD; Table B): ++

Compound: c1ccc(CCn2ccnc2)cc1 [1-(2-phenylethyl)imidazole, 1-(2-Phenylethyl)imidazole]
- IC50 (TXA2 synthetase; [2]): 116 µM
- SELECTIVITY (PGE, PGF and PGD; Table B): +

Compound: CC(Cn1ccnc1)c1ccccc1 (stereo not drawn) [1-(2-phenylpropyl)imidazole, 1-(2-Phenylpropyl)imidazole]
- IC50 (TXA2 synthetase; [2]): < 26.8 µM

Compound: Cc1ccc(Cn2ccnc2)cc1C [1-(3,4-Dimethylbenzyl)imidazole]
- SELECTIVITY (PGE, PGF and PGD; Table A): ++

Compound: Nc1cccc(Cn2ccnc2)c1 [1-(3-aminobenzyl)imidazole, 1-(3-Aminobenzyl)imidazole]
- IC50 (TXA2 synthetase; [2]): ~57.7 µM
- SELECTIVITY (PGE, PGF and PGD; Table B): ++

Compound: Brc1cccc(Cn2ccnc2)c1 [1-(3-bromobenzyl)imidazole, 1-(3-Bromobenzyl)imidazole]
- IC50 (TXA2 synthetase; [2]): 61.2 µM
- SELECTIVITY (PGE, PGF and PGD; Table B): +++

Compound: O=[N+]([O-])c1cccc(Cn2ccnc2)c1 [1-(3-nitrobenzyl)imidazole, 1-(3-Nitrobenzyl)imidazole]
- IC50 (TXA2 synthetase; [2]): 271 µM

Compound: C(=Cc1ccccc1)Cn1ccnc1 [1-(3-phenylprop-2-enyl)imidazole, 1-(3-Phenylprop-2-enyl)imidazole]
- IC50 (TXA2 synthetase; [2]): 92.3 µM

Compound: c1ccc(CCCn2ccnc2)cc1 [1-(3-phenylpropyl)imidazole, 1-(3-Phenylpropyl)imidazole]
- IC50 (TXA2 synthetase; [2]): 134 µM
- SELECTIVITY (PGE, PGF and PGD; Table B): +

Compound: Brc1ccc(Cn2ccnc2)cc1 [1-(4-bromobenzyl)imidazole, 1-(4-Bromobenzyl)imidazole]
- IC50 (TXA2 synthetase; [2]): 19.4 µM

Compound: Fc1ccc(Cn2ccnc2)cc1 [1-(4-fluorobenzyl)imidazole, 1-(4-Fluorobenzyl)imidazole]
- IC50 (TXA2 synthetase; [2]): 159 µM

Compound: CC(C)c1ccc(Cn2ccnc2)cc1 [1-(4-i-propylbenzyl)imidazole, 1-(4-i-Propylbenzyl)imidazole]
- IC50 (TXA2 synthetase; [2]): 0.499 µM
- SELECTIVITY (PGE, PGF and PGD; Table B): 0

Compound: Cc1ccc(Cn2ccnc2)cc1 [1-(4-methylbenzyl)imidazole, 1-(4-Methylbenzyl)imidazole]
- IC50 (TXA2 synthetase; [2]): 174 µM
- SELECTIVITY (PGE, PGF and PGD; Table B): +

Compound: Clc1ccc(C=CCn2ccnc2)c(Cl)c1 [1-[3-(2,4-Dichlorophenyl)prop-2-enyl]imidazole]
- SELECTIVITY (PGE, PGF and PGD; Table A): +

Compound: Clc1ccc(CCCn2ccnc2)c(Cl)c1 [1-[3-(2,4-Dichlorophenyl)propyl]imidazole]
- IC50 (TXA2 synthetase; Table A, read-out: ED50 (concentration of active compound to reduce the enzyme activity by 50%) (converted)): 1.96 µM
- IC50 (TXA2 synthetase; [2]): 2.35 µM
- SELECTIVITY (PGE, PGF and PGD; Table A): ++
- SELECTIVITY (PGE, PGF and PGD; Table B): ++
- inhibiting platelet aggregation in vivo (platelet aggregation): capable of inhibiting platelet aggregation in vivo
- disaggregating platelet clumps (platelet clumps): capable of disaggregating platelet clumps

Compound: Clc1cccc(Cl)c1C=CCn1ccnc1 [1-[3-(2,6-Dichlorophenyl)prop-2-enyl]imidazole]
- SELECTIVITY (PGE, PGF and PGD; Table A): +

Compound: c1ccc(Cn2ccnc2)cc1 [1-benzylimidazole, 1-Benzylimidazole]
- IC50 (TXA2 synthetase; read-out: ED50 (concentration of active compound to reduce the enzyme activity by 50%), Table B): 31.6 µM
- SELECTIVITY (PGE, PGF and PGD; Table B): +++
- inhibiting platelet aggregation in vivo (platelet aggregation): capable of inhibiting platelet aggregation in vivo
- disaggregating platelet clumps (platelet clumps): capable of disaggregating platelet clumps

Compound: Cn1ccnc1 [1-methylimidazole]
- inhibition of the enzymic conversion of endoperoxides to thromboxane A2 [1]: some degree of inhibition

Compound: c1c[nH]cn1 [Imidazole]
- inhibition of the enzymic conversion of endoperoxides to thromboxane A2 [1]: some degree of inhibition
